# Results from patent US20200038513A1, “MODULATORS OF FAK PROTEOLYSIS AND ASSOCIATED METHODS OF USE” (ARVINAS OPERATIONS, INC., priority 2018, published 2020).
# Tested on: MDA-MB-231 cells
# Assay: RPPA (reverse phase protein array)
# Type: cell-based, human
# Protocol: RPPA analysis was performed by MD Anderson Cancer Center RPPA core facility.
# Examination of the Molecular Signaling Events) and/or Downstream Pathways Responsible for the Migration and Invasion Effects Observed by Exemplary Compound Treatment. To pinpoint these observations to a molecular signaling event or specific downstream pathway, reverse phase protein array (RPPA) analysis was performed (Table 4).
smiles,measurement,setting,value
"Cc1ncsc1-c1ccc(CNC(=O)[C@@H]2C[C@@H](O)CN2C(=O)[C@@H](NC(=O)CCOCCOc2ccc(Nc3ncc(C(F)(F)F)c(NCc4cccc(N(C)S(C)(=O)=O)c4)n3)cc2)C(C)(C)C)cc1 [Compound 102, (2S,4R)-1-((S)-3,3-dimethyl-2-(3-(2-(4-((4-((3-(N-methylmethylsulfonamido)benzyl)amino)-5-(trifluoromethyl)pyrimidin-2-yl)amino)phenoxy)ethoxy)propanamido)butanoyl)-4-hydroxy-N-(4-(4-methylthiazol-5-yl)benzyl)pyrrolidine-2-carboxamide]","rel. Protein level, Mnk1",500nM,97.2%
same,"rel. Protein level, Myosin-11",500nM,101.0%
same,"rel. Protein level, Myosin-IIa_pS1943",500nM,113.7%
same,"rel. Protein level, Myt1",500nM,93.2%
same,"rel. Protein level, N-Cadherin",500nM,104.0%
same,"rel. Protein level, N-Ras",500nM,98.6%
same,"rel. Protein level, NAPSIN-A",500nM,99.4%
same,"rel. Protein level, NDRG1_pT346",500nM,118.1%
same,"rel. Protein level, NDUFB4",500nM,100.5%
same,"rel. Protein level, NF-kB-p65_pS536",500nM,108.3%
same,"rel. Protein level, Notch1",500nM,105.8%
same,"rel. Protein level, Notch3",500nM,112.1%
same,"rel. Protein level, Oct-4",500nM,102.3%
same,"rel. Protein level, P-Cadherin",500nM,108.3%
same,"rel. Protein level, PAI-1",500nM,106.1%
same,"rel. Protein level, PAICS",500nM,98.1%
same,"rel. Protein level, PAK1",500nM,106.0%
same,"rel. Protein level, PAK4",500nM,95.1%
same,"rel. Protein level, PAR",500nM,158.2%
same,"rel. Protein level, PARP",500nM,104.5%
same,"rel. Protein level, PCNA",500nM,97.5%
same,"rel. Protein level, PD-1",500nM,98.8%
same,"rel. Protein level, PD-L1",500nM,95.8%
same,"rel. Protein level, PDGFR-b",500nM,124.5%
same,"rel. Protein level, PDHK1",500nM,102.2%
same,"rel. Protein level, PDK1",500nM,99.6%
same,"rel. Protein level, PDK1_pS241",500nM,103.2%
same,"rel. Protein level, PEA-15",500nM,97.9%
same,"rel. Protein level, PEA-15_pS116",500nM,98.0%
same,"rel. Protein level, PI3K-p85",500nM,100.1%
same,"rel. Protein level, PI3K-p110-a",500nM,107.4%
same,"rel. Protein level, PI3K-p110-b",500nM,94.8%
same,"rel. Protein level, PKA-a",500nM,105.1%
same,"rel. Protein level, PKC-b-II_pS660",500nM,93.7%
same,"rel. Protein level, PKC-delta_pS664",500nM,98.8%
same,"rel. Protein level, PKCa",500nM,113.3%
same,"rel. Protein level, PKM2",500nM,105.8%
same,"rel. Protein level, PLC-gamma2_pY759",500nM,97.9%
same,"rel. Protein level, PLK1",500nM,95.0%
same,"rel. Protein level, PMS2",500nM,96.4%
same,"rel. Protein level, PR",500nM,96.8%
same,"rel. Protein level, PRAS40",500nM,104.0%
same,"rel. Protein level, PRAS40_pT246",500nM,92.3%
same,"rel. Protein level, PREX1",500nM,102.5%
same,"rel. Protein level, PTEN",500nM,124.6%
same,"rel. Protein level, Paxillin",500nM,91.8%
same,"rel. Protein level, Pdcd4",500nM,120.2%
same,"rel. Protein level, Porin",500nM,97.8%
same,"rel. Protein level, RBM15",500nM,105.1%
same,"rel. Protein level, RIP",500nM,105.6%
same,"rel. Protein level, RPA32",500nM,98.4%
same,"rel. Protein level, RPA32_pS4-S8",500nM,102.8%
same,"rel. Protein level, RSK",500nM,99.0%
same,"rel. Protein level, Rab11",500nM,102.8%
same,"rel. Protein level, Rab25",500nM,100.2%
same,"rel. Protein level, Rad50",500nM,103.9%
same,"rel. Protein level, Rad51",500nM,89.6%
same,"rel. Protein level, Raptor",500nM,103.3%
same,"rel. Protein level, Rb",500nM,106.3%
same,"rel. Protein level, Rb_pS807_S811",500nM,92.3%
same,"rel. Protein level, Rheb",500nM,103.3%
same,"rel. Protein level, Rictor",500nM,126.9%
same,"rel. Protein level, Rictor_pT1135",500nM,92.3%
same,"rel. Protein level, S6",500nM,112.2%
same,"rel. Protein level, S6_pS235_S236",500nM,57.3%
same,"rel. Protein level, S6_pS240_S244",500nM,51.9%
same,"rel. Protein level, b-Actin",500nM,97.4%
same,"rel. Protein level, b-Catenin",500nM,108.4%
same,"rel. Protein level, b-Catenin_pT41_S45",500nM,96.8%
same,"rel. Protein level, c-Abl",500nM,95.2%
same,"rel. Protein level, c-IAP2",500nM,100.4%
same,"rel. Protein level, c-Jun_pS73",500nM,92.3%
same,"rel. Protein level, c-Kit",500nM,100.1%
same,"rel. Protein level, c-Met_pY1234_Y1235",500nM,101.1%
same,"rel. Protein level, c-Myc",500nM,89.2%
same,"rel. Protein level, cdc2_pY15",500nM,92.3%
same,"rel. Protein level, cdc25C",500nM,99.5%
same,"rel. Protein level, eEF2",500nM,98.9%
same,"rel. Protein level, eEF2K",500nM,110.8%
same,"rel. Protein level, eIF4E",500nM,102.9%
same,"rel. Protein level, eIF4E_pS209",500nM,95.8%
same,"rel. Protein level, eIF4G",500nM,96.7%
same,"rel. Protein level, mTOR",500nM,98.9%
same,"rel. Protein level, mTOR_pS2448",500nM,92.3%
same,"rel. Protein level, p21",500nM,98.7%
same,"rel. Protein level, p27-Kip-1",500nM,101.1%
same,"rel. Protein level, p27_pT198",500nM,100.1%
same,"rel. Protein level, p38-MAPK",500nM,93.4%
same,"rel. Protein level, p38_pT180_Y182",500nM,93.4%
same,"rel. Protein level, p44-42-MAPK",500nM,112.7%
same,"rel. Protein level, p53",500nM,113.6%
same,"rel. Protein level, p70-S6K1",500nM,109.6%
same,"rel. Protein level, p70-S6K_pT389",500nM,92.3%
same,"rel. Protein level, p90RSK_pT573",500nM,98.5%
same,Fak level by RPPA (in words),"10% FBS, 8 hours",Fak degradation
same,p-Fak level by RPPA (in words),"10% FBS, 8 hours",reduced levels of p-Fak
same,"rel. Protein level [%], SCD","antibody SCD, 500nM, n = 2",94.3%
same,"rel. Protein level [%], SDHA","antibody SDHA, 500nM, n = 2",102.0%
same,"rel. Protein level [%], SF2","antibody SF2, 500nM, n = 2",105.3%
same,"rel. Protein level [%], SHP-2_pY542","antibody SHP-2_pY542, 500nM, n = 2",96.4%
same,"rel. Protein level [%], SLC1A5","antibody SLC1A5, 500nM, n = 2",100.8%
same,"rel. Protein level [%], SOD1-","antibody SOD1-, 500nM, n = 2",101.4%
same,"rel. Protein level [%], SOD2","antibody SOD2, 500nM, n = 2",103.5%
same,"rel. Protein level [%], STING","antibody STING, 500nM, n = 2",136.3%
same,"rel. Protein level [%], Shc_pY317","antibody Shc_pY317, 500nM, n = 2",100.3%
same,"rel. Protein level [%], Slfn11","antibody Slfn11, 500nM, n = 2",96.5%
same,"rel. Protein level [%], Smac","antibody Smac, 500nM, n = 2",100.9%
same,"rel. Protein level [%], Smad1","antibody Smad1, 500nM, n = 2",96.6%
same,"rel. Protein level [%], Smad3","antibody Smad3, 500nM, n = 2",110.8%
same,"rel. Protein level [%], Smad4","antibody Smad4, 500nM, n = 2",100.2%
same,"rel. Protein level [%], Snail","antibody Snail, 500nM, n = 2",107.4%
same,"rel. Protein level [%], Sox2","antibody Sox2, 500nM, n = 2",105.3%
same,"rel. Protein level [%], Src","antibody Src, 500nM, n = 2",103.5%
same,"rel. Protein level [%], Src_pY419","antibody Src_pY419, 500nM, n = 2",98.9%
same,"rel. Protein level [%], Src_pY527","antibody Src_pY527, 500nM, n = 2",91.0%
same,"rel. Protein level [%], Stat3","antibody Stat3, 500nM, n = 2",99.2%
same,"rel. Protein level [%], Stat3_pY705","antibody Stat3_pY705, 500nM, n = 2",119.9%
same,"rel. Protein level [%], Stat5a","antibody Stat5a, 500nM, n = 2",111.4%
same,"rel. Protein level [%], Stathmin-1","antibody Stathmin-1, 500nM, n = 2",101.8%
same,"rel. Protein level [%], Syk","antibody Syk, 500nM, n = 2",92.8%
same,"rel. Protein level [%], TAZ","antibody TAZ, 500nM, n = 2",89.0%
same,"rel. Protein level [%], TFAM","antibody TFAM, 500nM, n = 2",107.8%
same,"rel. Protein level [%], TFRC","antibody TFRC, 500nM, n = 2",99.8%
same,"rel. Protein level [%], TIGAR","antibody TIGAR, 500nM, n = 2",96.8%
same,"rel. Protein level [%], TRIM25","antibody TRIM25, 500nM, n = 2",108.0%
same,"rel. Protein level [%], TSC1","antibody TSC1, 500nM, n = 2",106.5%
same,"rel. Protein level [%], TTF1","antibody TTF1, 500nM, n = 2",102.7%
same,"rel. Protein level [%], TUFM","antibody TUFM, 500nM, n = 2",96.9%
same,"rel. Protein level [%], TWIST","antibody TWIST, 500nM, n = 2",96.9%
same,"rel. Protein level [%], Tau","antibody Tau, 500nM, n = 2",101.7%
same,"rel. Protein level [%], Transglutaminase","antibody Transglutaminase, 500nM, n = 2",107.8%
same,"rel. Protein level [%], Tuberin","antibody Tuberin, 500nM, n = 2",106.3%
same,"rel. Protein level [%], Tuberin_pT1462","antibody Tuberin_pT1462, 500nM, n = 2",93.5%
same,"rel. Protein level [%], Tyro3","antibody Tyro3, 500nM, n = 2",98.8%
same,"rel. Protein level [%], U-Histone-H2B","antibody U-Histone-H2B, 500nM, n = 2",108.7%
same,"rel. Protein level [%], UBAC1","antibody UBAC1, 500nM, n = 2",100.4%
same,"rel. Protein level [%], UGT1A","antibody UGT1A, 500nM, n = 2",94.3%
same,"rel. Protein level [%], ULK1_pS757","antibody ULK1_pS757, 500nM, n = 2",100.9%
same,"rel. Protein level [%], VASP","antibody VASP, 500nM, n = 2",108.6%
same,"rel. Protein level [%], VEGFR-2","antibody VEGFR-2, 500nM, n = 2",93.7%
same,"rel. Protein level [%], VHL-EPPK1","antibody VHL-EPPK1, 500nM, n = 2",90.7%
same,"rel. Protein level [%], WIPI1","antibody WIPI1, 500nM, n = 2",112.5%
same,"rel. Protein level [%], WIPI2","antibody WIPI2, 500nM, n = 2",108.8%
same,"rel. Protein level [%], Wee1","antibody Wee1, 500nM, n = 2",92.3%
same,"rel. Protein level [%], Wee1_pS642","antibody Wee1_pS642, 500nM, n = 2",94.7%
same,"rel. Protein level [%], XBP-1","antibody XBP-1, 500nM, n = 2",92.8%
same,"rel. Protein level [%], XPA","antibody XPA, 500nM, n = 2",96.4%
same,"rel. Protein level [%], XPF","antibody XPF, 500nM, n = 2",109.0%
same,"rel. Protein level [%], XRCC1","antibody XRCC1, 500nM, n = 2",104.0%
same,"rel. Protein level [%], YAP","antibody YAP, 500nM, n = 2",95.4%
same,"rel. Protein level [%], YAP_pS127","antibody YAP_pS127, 500nM, n = 2",106.2%
same,"rel. Protein level [%], YB1_pS102","antibody YB1_pS102, 500nM, n = 2",92.3%
same,"rel. Protein level [%], ZAP-70","antibody ZAP-70, 500nM, n = 2",92.5%
